Test [1] addresses B-Raf V600E (Homo sapiens, UniProt P15056, V600E). As to the kind of experiment: B-Raf V600E kinase activity assay (AlphaScreen, biotin-MEK1 substrate). Particulars: 100 μM ATP, 100 nM biotin-MEK1, 45 minutes at room temperature, read-out: Biochemical activity (IC50 μM) V600E. The method in brief: (§1)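 Each Raf enzyme (0.1 ng) phosphorylates 100 nM biotin-MEK1 in pH 7.0 HEPES with Mg2+/Mn2+, 100 μM ATP final, 45 min at room temperature. Phospho-MEK1/2 antibody with AlphaScreen beads is read after 3 h. IC50 comes from an 8-point dilution series.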
In general terms: Alpha assays give light when donor and acceptor beads are brought close together.

Test [2] addresses B-Raf (Homo sapiens, UniProt P15056). As to the kind of experiment: B-Raf kinase activity assay (AlphaScreen, biotin-MEK1 substrate). Particulars: 100 μM ATP, 100 nM biotin-MEK1, 45 minutes at room temperature; read-out: Biochemical activity (IC50 μM) B-Raf. In a few lines: as §1
Test [3] relates to COLO205 colon adenocarcinoma (B-Raf V600E mutation). Description: COLO205 cell growth inhibition (ATPlite luminescence). Particulars: Homo sapiens, COLO 205, 72 h, COLO205 cells, incubated 3 days with compound. The test is classed as cell-based. How it is done: Compounds are assessed in a variety of cell based assays. For example human cell lines with B-Raf V600E mutation (A375 melanoma, SKMEL3 melanoma, and COLO205 colon adenocarcinoma), as well as tumorigenic cell lines with wild-type B-RAF (SW620 colon adenocarcinoma) or with Ras mutations (SKMEL2 melanoma and IPC298 melanoma). Similar assays may be used to assess additional tumorigenic cell lines with Ras mutations, including, but not limited to, M202, M207, M243, M244, M296, S117, HCT116, HCT15, DLD1, MiaPaCa, A549, NCI-H23, NCI-H460, HOP62, MDA-MB231, Hs-578T, HL60, MOLT-4, and CCRF-CEM.
On day 1, cells are counted, then centrifuged in a conical tube for 5 minutes at 1000 rpm. The supernatant is removed and cells are re-suspended as follows: • SW620 (ATCC catalog #CCL-27): resuspend in Leibovitz's L-15 medium, 2 mM L-glutamine, 10% fetal bovine serum to 6×10^4 cells/mL. • A375 (ATCC catalog #CRL-1619): resuspend in Dulbecco's modified Eagle's medium, 4 mM L-glutamine, 4.5 g/L D-glucose, 10% fetal bovine serum to 6×10^4 cells/mL. • COLO205 (ATCC catalog #CCL-222): resuspend in RPMI 1640, 2 mM L-glutamine, 1.5 g/L sodium bicarbonate, 4.5 g/L D-glucose, 10 mM HEPES, 1.0 mM sodium pyruvate, 10% fetal bovine serum to 6×10^4 cells/mL. • SKMEL2 (ATCC catalog #HTB-68): resuspend in Minimum Eagle essential medium, 2 mM L-glutamine, 1.5 g/L sodium bicarbonate, 0.1 mM non-essential amino acids, 1.0 mM sodium pyruvate, 10% fetal bovine serum to 6×10^4 cells/mL. • SKMEL3 (ATCC catalog #HTB-69): resuspend in McCoy's 5A medium, 1.5 mM L-glutamine, 15% fetal bovine serum to 6×10^4 cells/mL. • IPC298 (DSMZ catalog #ACC 251): resuspend in RPMI 1640, 2 mM L-glutamine, 10% fetal bovine serum to 6×10^4 cells/mL.
The cells are plated, 50 μL in each well of a 96-well dish (Corning 3610) and incubated at 37° C. in 5% CO2 overnight, cells plated to a final concentration of cells as follows:
On day 2, compound at a maximum concentration of 5 mM is serially diluted 1:3 (e.g. 10 μL with 30 μL dimethyl sulfoxide) for a total of 8 point titration with DMSO as a control. A 1 μL aliquot of each dilution point and control is added to 249 μL growth media and 50 μL is added to a well containing cells, providing 10 μM compound at the maximum concentration point. The cells are incubated for 3 days at 37° C. in 5% CO2.
On day 5, ATPlite 1 step Luminescence Assay System (Perkin Elmer #6016739) is brought to room temperature along with the cell cultures. ATPlite is added 25 μL to each well, shake for 2 minutes, and the cells are incubated at room temperature for 10 minutes, then luminescence is read on Safire reader. The measured luminescence correlates directly with cell number, such that the reading as a function of compound concentration is used to determine the IC50 value.
It is understood that the results of these assays may vary as assay conditions are varied. Inhibition levels determined under the conditions described herein represent a relative activity for the compounds tested under the specific conditions employed. The cell based assays are likely to show variability due to the complexity of the system and the sensitivity thereof to any changes in the assay conditions. […] Results for compounds that are tested and show substantially no inhibition below the highest tested concentration are represented as “-” in the tables below. In some instances, the compounds were not tested in all of the assays, or assay results were not valid, as indicated by NA in the tables below.
On the technique in general: ATP-based viability assays read luminescence as a measure of living cells.

Test [4] concerns the target c-Raf-1 (Homo sapiens, UniProt P04049). As to the kind of experiment: c-Raf-1 kinase activity assay (AlphaScreen, biotin-MEK1 substrate). Particulars: 100 μM ATP, 100 nM biotin-MEK1, 45 minutes at room temperature; read-out: Biochemical activity (IC50 μM) c-Raf-1. In a few lines: as §1

Sequence of B-Raf V600E (P15056 whole entry V600E): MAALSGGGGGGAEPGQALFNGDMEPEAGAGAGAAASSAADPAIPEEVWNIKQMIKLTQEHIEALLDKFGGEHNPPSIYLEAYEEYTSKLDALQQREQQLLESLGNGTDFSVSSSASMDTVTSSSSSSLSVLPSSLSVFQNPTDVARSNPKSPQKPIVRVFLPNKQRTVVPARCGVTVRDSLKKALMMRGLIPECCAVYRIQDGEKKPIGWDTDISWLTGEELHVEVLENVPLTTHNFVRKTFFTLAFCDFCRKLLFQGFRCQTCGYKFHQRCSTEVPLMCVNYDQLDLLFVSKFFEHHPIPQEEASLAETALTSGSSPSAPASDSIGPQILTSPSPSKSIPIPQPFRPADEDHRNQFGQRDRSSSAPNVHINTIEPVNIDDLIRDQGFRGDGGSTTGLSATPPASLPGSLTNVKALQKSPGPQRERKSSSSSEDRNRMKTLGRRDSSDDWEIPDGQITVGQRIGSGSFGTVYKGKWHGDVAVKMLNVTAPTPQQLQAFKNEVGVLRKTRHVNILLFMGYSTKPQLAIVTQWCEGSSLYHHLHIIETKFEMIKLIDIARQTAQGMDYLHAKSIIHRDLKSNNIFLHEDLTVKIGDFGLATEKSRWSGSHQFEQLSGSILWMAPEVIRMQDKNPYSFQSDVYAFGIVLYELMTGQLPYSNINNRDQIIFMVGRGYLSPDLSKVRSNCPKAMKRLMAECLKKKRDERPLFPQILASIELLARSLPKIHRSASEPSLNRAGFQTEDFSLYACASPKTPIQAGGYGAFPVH
Sequence of B-Raf (P15056 whole entry): as the sequence (P15056 whole entry V600E) above, with E600V counted along it
Sequence of c-Raf-1 (P04049 whole entry Y340D/Y341D, form open): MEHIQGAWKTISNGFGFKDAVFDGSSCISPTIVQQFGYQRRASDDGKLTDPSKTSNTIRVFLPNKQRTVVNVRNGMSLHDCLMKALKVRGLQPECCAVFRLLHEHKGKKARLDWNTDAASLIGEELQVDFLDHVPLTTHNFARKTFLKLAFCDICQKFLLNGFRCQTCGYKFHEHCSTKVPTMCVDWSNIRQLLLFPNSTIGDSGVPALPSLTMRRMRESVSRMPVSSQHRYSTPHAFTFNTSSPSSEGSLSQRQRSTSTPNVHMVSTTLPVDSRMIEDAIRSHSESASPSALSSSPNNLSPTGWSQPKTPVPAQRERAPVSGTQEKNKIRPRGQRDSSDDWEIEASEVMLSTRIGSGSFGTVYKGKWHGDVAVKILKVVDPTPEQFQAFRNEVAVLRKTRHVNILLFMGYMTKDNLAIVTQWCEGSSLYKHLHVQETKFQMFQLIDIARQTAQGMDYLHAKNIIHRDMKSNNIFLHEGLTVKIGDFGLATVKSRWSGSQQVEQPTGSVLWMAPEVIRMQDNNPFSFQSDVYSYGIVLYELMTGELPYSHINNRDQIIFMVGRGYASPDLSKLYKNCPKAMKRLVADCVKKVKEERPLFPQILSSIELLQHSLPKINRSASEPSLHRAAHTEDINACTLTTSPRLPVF

For the molecule `CCCS(=O)(=O)Nc1ccc(F)c(C(=O)c2c[nH]c3ncc(-c4csc(-n5cnc(C)c5)n4)cc23)c1F` [P-1100, Propane-1-sulfonic acid (2,4-difluoro-3-{5-[2-(4-methyl-imidazol-1-yl)-thiazol-4-yl]-1H-pyrrolo[2,3-b]pyridine-3-carbonyl}-phenyl)-amide], the IC50 in test [1] was under 0.1 µM; in test [2] it was under 0.1 µM; in test [3] it was under 1 µM; in test [4] it was under 0.1 µM.

As for `CCCS(=O)(=O)Nc1ccc(F)c(C(=O)c2c[nH]c3ncc(-c4csc(N(C)C)n4)cc23)c1F` [P-1102, Propane-1-sulfonic acid {3-[5-(2-dimethylamino-thiazol-4-yl)-1H-pyrrolo[2,3-b]pyridine-3-carbonyl]-2,4-difluoro-phenyl}-amide], the IC50 was under 0.1 µM in test [1], under 0.1 µM in test [2], over 1 µM in test [3] and under 0.1 µM in test [4].

As for `CCCS(=O)(=O)Nc1ccc(F)c(C(=O)c2c[nH]c3ncc(-c4csc(-n5cccn5)n4)cc23)c1F` [P-1103, Propane-1-sulfonic acid {2,4-difluoro-3-[5-(2-pyrazol-1-yl-thiazol-4-yl)-1H-pyrrolo[2,3-b]pyridine-3-carbonyl]-phenyl}-amide], the IC50 is under 0.1 µM in test [1], under 0.1 µM in test [2], over 1 µM in test [3] and under 0.1 µM in test [4].

For the molecule `CCCS(=O)(=O)Nc1ccc(F)c(C(=O)c2c[nH]c3ncc(-c4cnc(-n5ccnc5)s4)cc23)c1F` [P-1104, Propane-1-sulfonic acid {2,4-difluoro-3-[5-(2-imidazol-1-yl-thiazol-5-yl)-1H-pyrrolo[2,3-b]pyridine-3-carbonyl]-phenyl}-amide], the IC50 is under 0.1 µM in test [1], under 0.1 µM in test [2], under 1 µM in test [3] and under 0.1 µM in test [4].

Turning to `CCCS(=O)(=O)Nc1ccc(F)c(C(=O)c2c[nH]c3ncc(-c4cnc(-n5ccnc5C)s4)cc23)c1F` [P-1105, Propane-1-sulfonic acid (2,4-difluoro-3-{5-[2-(2-methyl-imidazol-1-yl)-thiazol-5-yl]-1H-pyrrolo[2,3-b]pyridine-3-carbonyl}-phenyl)-amide], the IC50 in test [1] is under 0.1 µM; in test [2], under 0.1 µM; in test [3], under 1 µM; in test [4] it was under 0.1 µM.

In the case of `CCCS(=O)(=O)Nc1ccc(F)c(C(=O)c2c[nH]c3ncc(-c4csc(-n5ccnc5)n4)cc23)c1F` [P-1106, Propane-1-sulfonic acid {2,4-difluoro-3-[5-(2-imidazol-1-yl-thiazol-4-yl)-1H-pyrrolo[2,3-b]pyridine-3-carbonyl]-phenyl}-amide], the IC50 in test [1] is under 0.1 µM; in test [2] it was under 0.1 µM; in test [3] it was over 1 µM; in test [4], under 0.1 µM.

For `CCCS(=O)(=O)Nc1ccc(F)c(C(=O)c2c[nH]c3ncc(-c4ccc(-c5cccnc5)s4)cc23)c1F` [P-1200, Propane-1-sulfonic acid {2,4-difluoro-3-[5-(5-pyridin-3-yl-thiophen-2-yl)-1H-pyrrolo[2,3-b]pyridine-3-carbonyl]-phenyl}-amide], the IC50 is under 0.1 µM in test [1], under 0.1 µM in test [2], over 1 µM in test [3] and under 0.1 µM in test [4].

Regarding `CCCS(=O)(=O)Nc1ccc(F)c(C(=O)c2c[nH]c3ncc(-c4ccc(-c5cc[nH]n5)s4)cc23)c1F` [P-1201, Propane-1-sulfonic acid (2,4-difluoro-3-{5-[5-(1H-pyrazol-3-yl)-thiophen-2-yl]-1H-pyrrolo[2,3-b]pyridine-3-carbonyl}-phenyl)-amide], the IC50 in test [1] was under 0.1 µM; in test [2], under 0.1 µM; in test [3], under 1 µM; in test [4] it was under 0.1 µM.

For `CCCS(=O)(=O)Nc1ccc(F)c(C(=O)c2c[nH]c3ncc(-c4ccc(S(N)(=O)=O)s4)cc23)c1F` [P-1202, 5-{3-[2,6-Difluoro-3-(propane-1-sulfonylamino)-benzoyl]-1H-pyrrolo[2,3-b]pyridin-5-yl}-thiophene-2-sulfonic acid amide], the IC50 in test [1] was under 0.1 µM; in test [2] it was under 0.1 µM; in test [3] it was under 1 µM; in test [4], under 0.1 µM.

`CCCS(=O)(=O)Nc1ccc(F)c(C(=O)c2c[nH]c3ncc(-c4ccc(-c5noc(C)n5)s4)cc23)c1F` [P-1203, Propane-1-sulfonic acid (2,4-difluoro-3-{5-[5-(5-methyl-[1,2,4]oxadiazol-3-yl)-thiophen-2-yl]-1H-pyrrolo[2,3-b]pyridine-3-carbonyl}-phenyl)-amide]: the IC50 is under 0.1 µM in test [1], under 0.1 µM in test [2], over 1 µM in test [3] and under 0.1 µM in test [4].

Consider `CCCS(=O)(=O)Nc1ccc(F)c(C(=O)c2c[nH]c3ncc(-c4ccccn4)cc23)c1F` [P-1401, Propane-1-sulfonic acid [2,4-difluoro-3-(5-pyridin-2-yl-1H-pyrrolo[2,3-b]pyridine-3-carbonyl)-phenyl]-amide], for which the IC50 in test [1] is under 0.1 µM; in test [2], under 0.1 µM; in test [3], over 1 µM; in test [4], under 0.1 µM.

Turning to `CCCS(=O)(=O)Nc1ccc(F)c(C(=O)c2c[nH]c3ncc(-c4cnc(-n5cccn5)cn4)cc23)c1F` [P-1601, Propane-1-sulfonic acid {2,4-difluoro-3-[5-(5-pyrazol-1-yl-pyrazin-2-yl)-1H-pyrrolo[2,3-b]pyridine-3-carbonyl]-phenyl}-amide], the IC50 was under 0.1 µM in test [1], under 0.1 µM in test [2], under 1 µM in test [3] and under 0.1 µM in test [4].

Turning to `CCCS(=O)(=O)Nc1ccc(F)c(C(=O)c2c[nH]c3ncc(-c4cnc(-n5ccnc5)cn4)cc23)c1F` [P-1602, Propane-1-sulfonic acid {2,4-difluoro-3-[5-(5-imidazol-1-yl-pyrazin-2-yl)-1H-pyrrolo[2,3-b]pyridine-3-carbonyl]-phenyl}-amide], the 50% inhibitory concentration (IC50) in test [1] was under 0.1 µM; in test [2], under 0.1 µM; in test [3], under 1 µM; in test [4], under 0.1 µM.

As to `CCCS(=O)(=O)Nc1ccc(F)c(C(=O)c2c[nH]c3ncc(-c4cnc(N)cn4)cc23)c1F` [P-1603, Propane-1-sulfonic acid {3-[5-(5-amino-pyrazin-2-yl)-1H-pyrrolo[2,3-b]pyridine-3-carbonyl]-2,4-difluoro-phenyl}-amide], the IC50 in test [1] was under 0.1 µM; in test [2], under 0.1 µM; in test [3], under 1 µM; in test [4] it was under 0.1 µM.

Broadly, the IC50 is the midpoint of a concentration-inhibition curve.

The record behind these values is US9440969B2, “Compounds and methods for kinase modulation, and indications therefor” (PLEXXIKON INC., priority 2009, dated 2016).
